Here are results for one compound from patent US20250352555A1, “METHOD OF INCREASING IMMUNE CELL ACTIVATION AND/OR TREATING CANCER USING DIBENZOXAZEPINONES” (VASCULAR THERAPEUTICS PTY LTD, priority 2022, published 2025).

One series has as its system MeWo cells. Kind of series: Cell morphology study, MeWo. The format is cell-based, human. To be noted: 1 μM, 24 h. As for the experimental part: Cell morphology studies. Cells were grown in medium containing 10% FBS in 4-well chamber slides. The following day the cells were incubated in medium containing 10% FBS and vehicle, BT2 or SCH772984 at 1 μM for 24 h, then fixed with 4% paraformaldehyde solution for 15 min. After washing briefly in PBS the cells were stained with hemotoxylin and eosin. The slides were scanned using an Aperio ScanScope XT slide scanner (Leica Biosystems, Mt Waverley, Vic, Australia) and images were captured using ImageScope software (Leica Biosystems).
The morphology of A375 and MeWo cells exposed to 1 μM of BT2 or SCH772984 for 24 h was also assessed.

Another series deals with IFN-γ. Kind of series: Mouse serum IFN-γ levels by ELISA. The class given is in vivo. To be noted: B16F10 tumor-bearing mice Day 17, 200 mg/kg i.p., vs vehicle. As for the experimental part: Mouse serum IFN-γ levels. Whole blood was collected from Day 17 mice and spun at 1500 g for 10 min at 4° C. Serum was extracted from the top layer and stored at −80° C. IFN-γ levels were measured using the mouse IFN-γ (Improved) ELISA kit (Invitrogen, cat. no. KMC4021) according to the manufacturer's protocol, with absorbance being read at 450 nm. GraphPad Prism 9 software was used to generate the standard curve. IFN-γ levels in mouse serum were measured alongside the standard curve by using GraphPad Prism 9.
IFN-γ is a biomarker of cellular immunity and the antitumor immune response. Elevated IFN-γ is associated with a systemic immune response in cancer patients and tumor-bearing mice after immune checkpoint therapy. Since IFN-γ is produced by T cells, levels of IFN-γ in the sera of tumor-bearing mice treated with vehicle or BT2 were determined.
On the technique in general: ELISA stands for enzyme-linked immunosorbent assay.

In another series the test system is JUN. Kind of series: Western blotting for JUN, MeWo cells. The class given is cell-based, human. The note with it: MeWo cells (BRAF WT), 24 h, dose-dependent. How it is done: Western blotting. Cells were treated with compounds and times indicated and total cell lysates were prepared in RIPA buffer. Lysates (10 μg) were resolved by SDS-PAGE and transferred to Immobilon-P polyvinylidene difluoride (PVDF) membranes (Millipore, USA).
Membranes were blocked with 5% skim milk and incubated with rabbit monoclonal anti-c-Jun (Abcam, cat. no. ab32137; mouse, rat and human reactive) antibody, rabbit monoclonal anti-PD-1 (Abcam, cat. no. ab214421) antibody, mouse monoclonal β-actin antibody (Sigma-Aldrich, cat. no. A5316), anti-phospho-SAPK/JNK (Thr^183/Tyr^185) (98F2) (CST, cat. no. 4671) antibody, anti-phospho-p44/42 MAPK (ERK1/2) (Thr^202/Tyr^204) (D13.14.4E) (CST, cat. no. 4370) antibody, anti-phospho-p38 MAPK (Thr^180/Tyr^182) (D3F9) (CST, cat. no. 4511) antibody, anti-SAPK/JNK antibody (CST, cat. no. 9252), anti-p44/42 MAPK (ERK1/2) (137F5) antibody (CST, cat. no. 4695), anti-p38 MAPK antibody (CST, cat. no. 9212), anti-DUSP8 antibody (Abcam, cat. no. ab198175) or anti-c-MAF (BLR045F) antibody (Abcam, cat. no. ab243901). […] Chemiluminescence was detected using the Western Lightning Chemiluminescence system (Thermo Scientific, USA) and ImageQuant™ LAS 4000 biomolecular imager (GE Healthcare Life Sciences, USA). Band intensity in images generated with the LAS 4000 was quantified using NIH Image J. […]
(Immunoblotting shows a protein as a band on a membrane.)

Series [1] can be described thus: Systemic pharmacokinetics after oral (PO) and intraperitoneal (IP) administration. The class given is in vivo. To be noted: male, CD-1, mouse, plasma, 30 mg/kg, male CD-1 mice; for bioavailability: PO, read-out: relative bioavailability. As for the experimental part:
Systemic pharmacokinetics after oral (PO) and intraperitoneal (IP) administration. Male CD-1 mice were injected with BT2 in Formulation 1, Formulation 2 or Formulation 3 (Table 4) and blood was collected after 0.083, 0.25, 0.5, 1, 2, 4, 8 and 24 h. BT2 was given PO or IP injection.
Approximately 110 μl blood samples were collected (n=3/time point, 3 mice/group) into tubes with EDTA-K2 anticoagulant. All blood samples were put on wet ice prior to centrifuging (6000 g, 4° C. for 5 min) to obtain plasma, which were stored at −70° C. or dry ice until analysis.
Plasma samples were analysed by LC-MS/MS (SCIEX ExionLC)-MS/MS (Triple Quad 6500+ With Analyst 1.7.1 AB Sciex). HPLC was performed using a Waters Acquity UPLC HSS T3 1.8 μm, 2.1×50 mm column with Mobile Phase A: H2O-0.025% FA+1 mM NH4OAc and Mobile Phase B: MeOH-0.025% FA+1 mM NH4OAc and injection volume 3 μl.
LC-MS/MS detection was performed for BT2 in plasma of mice given BT2 either by oral gavage (PO) or intraperitoneal (IP) injection. Plasma samples were processed (protein precipitation method used) and injected into LC-MS/MS (SCIEX ExionLC coupled with Triple Quad 6500+).

Where “and” joins values, the source holds several entries; their conditions need not be identical. Identical values can stand only once. Like-named read-outs stand apart in the source and are kept apart here.

For the compound `CCOC(=O)Nc1ccc2c(c1)C(=O)N(CC)c1ccccc1O2` [BT2, (10-ethyl-11-oxo-10,11-dihydro-dibenzo[b,f][1,4]oxazepin-2-yl)-carbamic acid ethyl ester], the cell morphology result in the series with MeWo cells was “loss of spindle morphology and cell rounding”. In the series on IFN-γ, the “circulating (serum) IFN-γ levels” value is given as “elevated”. For the same compound, in the series on JUN, the “JUN expression (Western blot)” value is given as “increased”. In series [1] (ip, Formulation 1 (G2)), the AUC(0-t) was 1440 ng·h/mL and 4.41 µM·h; the Cmax was 1070 ng/mL and 3.29 µM; the Tmax is 15 min; the half-life was 523 min. In series [1] (ip, Formulation 3 (G6)), the AUC(0-t) is 1180 ng·h/mL and 3.62 µM·h; the Cmax was 2.59 µM and 846 ng/mL; the Tmax was 30 min; the half-life is 505 min. Besides, in series [1] (po, Formulation 1 (G1)), the bioavailability is 13.1%; the AUC(0-t) is 189 ng·h/mL and 0.579 µM·h; the Cmax was 177 nM and 57.9 ng/mL; the Tmax was 15 min. Further, in series [1] (po, Formulation 3 (G5)), the bioavailability came to 28.8%; the AUC(0-t) was 340 ng·h/mL and 1.04 µM·h; the Cmax was 53.7 ng/mL and 165 nM; the Tmax stood at 60 min.

The term AUC(0-t) denotes the area under the concentration-time curve up to a stated or last time point. A high value points to high exposure. A word on the Cmax: it is the highest concentration seen after dosing. A word on the Tmax: it is the time from dosing to the highest level. The term half-life denotes how long it takes for the measured level to halve. Low readings indicate fast loss, high ones slow loss. What is called bioavailability is dose-corrected exposure relative to a reference, in per cent.
